Patent US20250099433A1, “COMPOSITION AND METHOD FOR TREATMENT OF GRAM NEGATIVE BACTERIAL INFECTION” (The Research Foundation for the State University of New York, priority 2021, published 2025)
In brackets after ≈: the same amount, converted by molar mass. Several values for one entry are separate records, joined by “and”; a condition that tells them apart may be missing. Equal entries are not always repeated.

Key:
[1] = tested on: E. coli strain (K-12, MG1655); assay: MIC by microbroth dilution, wild-type E. coli; type: cell-based, Escherichia coli; settings: wild-type E. coli K-12 MG1655
[2] = tested on: FabZ*, hyperactive FabZ strain (L85P); assay: microbe, parasite or virus in culture; type: cell-based, Escherichia coli; settings: for MIC: Escherichia coli, read-out: MIC (μM) FabZ*
[3] = tested on: wild-type E. coli (K-12 MG1655); assay: Post-antibiotic effect (PAE) in wild-type E. coli; type: cell-based, Escherichia coli; settings: 1:1000 dilution; for PAE (h) 1x, Wild-type: 1xMIC for 1 h; for PAE (h) 4x, Wild-type: 4xMIC for 1 h; for PAE (h) 16x, Wild-type: 16xMIC for 1 h
Excerpt: FIG. 4. Post-antibiotic effect of the ecLpxC inhibitors on wild-type and FabZ* E. coli. […] PAE data for wild-type E. coli are in panels (a) PT805, (c) PT810 and (e) CHIR-090, and for FabZ* E. coli in (b) PT805, (d) PT810 and (f) CHIR-090.
PAE data for wild-type E. coli are in panels (a) PT805, (c) PT810 and (e) CHIR-090, and for FabZ* E. coli in (b) PT805, (d) PT810 and (f) CHIR-090.

FabZ* E. coli = type: cell-based, Escherichia coli; settings: 1:1000 dilution; for PAE (h) 1x, FabZ*: 1xMIC for 1 h; for PAE (h) 4x, FabZ*: 4xMIC for 1 h; for PAE (h) 16x, FabZ*: 16xMIC for 1 h
Excerpt: FIG. 4. Post-antibiotic effect of the ecLpxC inhibitors on wild-type and FabZ* E. coli.
This included use of an E. coli strain (FabZ*) containing a hyperactive mutant of the fatty acid biosynthesis O-hydroxyacyl-ACP enzyme (FabZ), and determination of PAEs for wild-type E. coli in the presence of sub-MIC concentrations of macrolides.

[4] = tested on: wild-type E. coli (K12 MG1655); assay: PAE in wild-type E. coli in the presence of sub-MIC azithromycin; type: cell-based, Escherichia coli; settings: 16xMIC, 37° C.; for PAE (h) (sub-MIC AZ) 16x(0.2): then media with 0.2xMIC azithromycin; for PAE (h) (sub-MIC AZ) 16x(0.4): then media with 0.4xMIC azithromycin
Excerpt: FIG. 6. Post-antibiotic effect in the presence of sub-MIC azithromycin.
The PAE measurements were repeated for wild-type E. coli in the presence of sub-MIC levels of the protein synthesis inhibitor azithromycin.

[5] = tested on: wild-type E. coli and FabZ* E. coli; assay: Time kill assays in E. coli; settings: 4xMIC (16xMIC in FIG. 3), CaMH media, 37° C.
Procedure: Each time point was performed in duplicate or triplicate and the entire experiment was performed in triplicate. The data points in the figure are the mean values from the independent measurements and the error bars represent the standard deviation from the mean.
The antimicrobial activity of the compounds was examined. […] The post-antibiotic effect (PAE) of the inhibitors was measured by monitoring the regrowth of bacteria following compound washout. […] Bacterial regrowth was monitored by plating samples as a function of time after wash-out and enumerating CFUs.

P. aeruginosa PAO1 [6] = assay: Time-kill assays in P. aeruginosa PAO1; settings: PAO1, 4x, 8x and 16xMIC, CAMH media, 37° C.
Procedure: Time-kill assays. […] The experimental data points are the mean values from triplicate, independent measurements, and the error bars represent the standard deviation from the mean.
Time-Kill Assays. […] Cultures were shaken at 37° C. for 6 h, and 100 μL aliquots were taken at each 1 h time interval and plated in serial dilutions in a Mueller-Hinton agar plate.

P. aeruginosa PAO1 [7] = assay: MIC by microbroth dilution, P. aeruginosa PAO1; settings: Pseudomonas aeruginosa, PAO1, read-out: MIC (μM) (PAO1)
P. aeruginosa PAO1 [8] = assay: Post-antibiotic effect (PAE) in P. aeruginosa PAO1; settings: 37° C.; for PAE (h) 4x: PAO1, 4xMIC for 1 h; for PAE (h) 8x: PAO1, 8xMIC for 1 h; for PAE (h) 16x: PAO1, 16xMIC for 1 h
Procedure: Post-antibiotic effect of the paLpxC inhibitors on wild-type P. aeruginosa. […] The experimental data points are the mean values from triplicate, independent measurements, and the error bars represent the standard deviation from the mean.
After incubating the plates overnight at 37° C., CFUs were enumerated, and the PAE values were calculated using a standard method where the time for the bacteria to recover 1 log post drug washout compared to the control was determined (FIG. 17, Table 6).
Post-antibiotic Effect (PAE). PAEs were determined using P. aeruginosa PAO1. […] The compound was washed out by diluting the culture 1000-fold into fresh CAMH-II medium, and the regrowth of bacteria was monitored by taking 100 μL aliquots each hour and plating serial dilutions on Muller-Hinton agar plates.

[9] = tested on: efflux-pump mutant strain (ΔMexABCDXY) (paEP); assay: MIC by microbroth dilution, efflux-pump mutant P. aeruginosa; settings: Pseudomonas aeruginosa, read-out: MIC (μM) (paEP)
Excerpt: Bacterial Strains. […] The efflux-pump deficient P. aeruginosa strain (ΔMexABCDXY), N150, was derived from PAO1.
Minimum Inhibitory Concentration (MIC) Measurements.

ecLpxC = ecLpxC (Escherichia coli (strain K12), UniProt P0A725); type: binding; settings: residence time on ecLpxC at 25° C., displacement by fluorescent ligand
Procedure: Compounds were preincubated with ecLpxC and then mixed with a fluorescent LpxC inhibitor PT900.

paLpxC [10] = target: T1, paLpxC (Pseudomonas aeruginosa (strain ATCC 15692 / DSM 22644 / CIP 104116 / JCM 14847 / LMG 12228 / 1C / PRS 101 / PAO1), UniProt P47205); assay: biochemical; type: binding; settings: for Ki / tR (min) Fluorescence assay: 37° C.; for Ki: fluorescence competition; for tR (min) Fluorescence assay: tR = 1/koff; for koff: read-out: Koff (s^−1); for kon: read-out: Kon (μM^−1s^−1)
[11] = in vivo; cited from earlier work
[12] = target: LpxC from Aquifex aeolicus (aaLpxC) (Aquifex aeolicus (strain VF5), UniProt O67648); settings: cited from earlier work
LpxC from E. coli = LpxC from E. coli (Escherichia coli (strain K12), UniProt P0A725); settings: cited from earlier work
paLpxC [13] = target: T1, paLpxC; assay: Spin column (Penefsky) residence time assay on paLpxC; type: binding; settings: 37° C.
Procedure: FIG. 14. Spin-column assay. A spin-column assay was used to quantify the residence time of inhibitors on paLpxC at 37° C. […] Samples were then subjected to size exclusion chromatography at different times using a Spin-Trap G-25 column (800×g for 2 min). […] Preincubated solutions of enzyme (10 μM) and inhibitor (10 or 20 μM) were diluted 200-fold into a solution of PT855 (1 μM) at 37° C. Aliquots of this solution were withdrawn at various times and subjected to centrifugal gel filtration chromatography using PD SpinTrap™ G-25 columns. The fluorescence of the eluate was quantified, and the data were fit to a single exponential equation to obtain koff (FIG. 14, Tables 4 and 5).
Inhibitor Residence Time Measurements using a Spin Column Assay. […] Subsequently, 10 μL of the incubation mixture was diluted into 2 mL of the same buffer containing 1 μM of PT855, and 100 μL of this mixture was then aliquoted at different time points and loaded onto a PD SpinTrap™ G-25 column (Cytiva) that had been equilibrated with buffer prior to sample loading. […] The fluorescence intensities corresponding to loading diluted EI without the fluorescent competitor and loading the competitor alone were measured separately to determine the dynamic range and endpoint of the assay. […] Rates were calculated by fitting the change in fluorescence intensity over time to a one-phase association equation in GraphPad Prism.

T1 sequence (P47205 1-299): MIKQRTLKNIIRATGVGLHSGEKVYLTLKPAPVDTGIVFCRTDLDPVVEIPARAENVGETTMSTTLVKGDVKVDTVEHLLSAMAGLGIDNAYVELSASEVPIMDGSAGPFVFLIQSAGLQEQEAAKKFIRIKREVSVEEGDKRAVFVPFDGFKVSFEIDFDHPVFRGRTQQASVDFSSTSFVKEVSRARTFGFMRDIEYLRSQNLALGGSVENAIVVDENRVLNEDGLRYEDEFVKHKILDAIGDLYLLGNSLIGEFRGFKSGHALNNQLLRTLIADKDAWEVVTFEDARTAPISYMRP
Sequence of LpxC from E. coli (P0A725 whole entry): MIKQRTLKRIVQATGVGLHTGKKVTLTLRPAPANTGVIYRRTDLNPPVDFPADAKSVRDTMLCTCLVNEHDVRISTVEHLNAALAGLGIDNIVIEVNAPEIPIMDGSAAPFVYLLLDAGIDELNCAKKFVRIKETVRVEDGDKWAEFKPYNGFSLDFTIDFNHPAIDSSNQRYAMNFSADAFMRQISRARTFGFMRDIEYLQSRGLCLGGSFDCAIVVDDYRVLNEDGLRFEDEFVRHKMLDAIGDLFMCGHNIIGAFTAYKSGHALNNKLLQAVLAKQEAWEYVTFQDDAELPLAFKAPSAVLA
Sequence of LpxC from Aquifex aeolicus (aaLpxC) (O67648 whole entry): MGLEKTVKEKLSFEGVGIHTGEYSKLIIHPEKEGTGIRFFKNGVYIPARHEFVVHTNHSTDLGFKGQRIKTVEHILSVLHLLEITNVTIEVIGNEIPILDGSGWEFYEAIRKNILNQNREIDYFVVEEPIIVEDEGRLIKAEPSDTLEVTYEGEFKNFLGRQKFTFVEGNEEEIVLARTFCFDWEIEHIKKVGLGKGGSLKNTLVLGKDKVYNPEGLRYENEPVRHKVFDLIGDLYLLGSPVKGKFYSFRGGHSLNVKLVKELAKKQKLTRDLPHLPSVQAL

CC(CCn1ccc(-c2ccc(-n3nccn3)cc2)cc1=O)(C(=O)NO)S(C)(=O)=O (racemic) [PT805, 4-(4-(4-(2H-1,2,3-Triazol-2-yl)phenyl)-2-oxopyridin-1(2H)-yl)-N-hydroxy-2-methyl-2-(methylsulfonyl)butanamide]
MIC ([1]; Escherichia coli): 0.16 µM (≈ 0.069 µg/mL)
MIC [2]: 0.019 µM (≈ 0.0082 µg/mL)
PAE (h) 1x, Wild-type [3]: 0 h
PAE (h) 4x, Wild-type [3]: 0 h
PAE (h) 16x, Wild-type [3]: 0 h
PAE (h) 1x, FabZ* (FabZ* E. coli): 0.8 ± 0.1 h
PAE (h) 4x, FabZ* (FabZ* E. coli): 1.53 ± 0.13 h and 1.5 ± 0.1 h
PAE (h) 16x, FabZ* (FabZ* E. coli): 2.1 ± 0.2 h
PAE (h) (sub-MIC AZ) 16x(0.2) [4]: 1.4 ± 0.1 h
PAE (h) (sub-MIC AZ) 16x(0.4) [4]: 2.4 ± 0.1 h
reduction of the starting log CFU/mL of the bacterial culture [5]: greater than 3 logs
reduction of the starting log CFU/mL of the bacterial culture (P. aeruginosa PAO1 [6]): more than 3 logs
MIC (P. aeruginosa PAO1 [7]): 1.56 µM (≈ 0.673 µg/mL)
PAE (h) 4x (P. aeruginosa PAO1 [8]): 1.4 ± 0.1 h
PAE (h) 8x (P. aeruginosa PAO1 [8]): 2.2 ± 0.3 h
PAE (h) 16x (P. aeruginosa PAO1 [8]): 3.4 ± 0.2 h
MIC [9]: 0.4 µM (≈ 0.173 µg/mL)

CC(CCn1ccc(-c2ccc(-c3cn(Cc4ccccc4)nn3)cc2)cc1=O)(C(=O)NO)S(C)(=O)=O (racemic) [PT810, 4-(4-(4-(1-Benzyl-1H-1,2,3-triazol-4-yl)phenyl)-2-oxopyridin-1(2H)-yl)-N-hydroxy-2-methyl-2-(methylsulfonyl)butanamide]
tR (ecLpxC): 6 ± 3 min
MIC ([1]; Escherichia coli): 0.17 µM (≈ 0.0887 µg/mL)
MIC [2]: 0.08 µM (≈ 0.0417 µg/mL)
PAE (h) 1x, Wild-type [3]: 0 h
PAE (h) 4x, Wild-type [3]: 0 h
PAE (h) 16x, Wild-type [3]: 0 h
PAE (h) 1x, FabZ* (FabZ* E. coli): 0.7 ± 0.2 h
PAE (h) 4x, FabZ* (FabZ* E. coli): 0.76 ± 0.19 h and 0.8 ± 0.2 h
PAE (h) 16x, FabZ* (FabZ* E. coli): 0.9 ± 0.2 h
PAE (h) (sub-MIC AZ) 16x(0.2) [4]: 1.9 ± 0.8 h
PAE (h) (sub-MIC AZ) 16x(0.4) [4]: 2.6 ± 0.8 h
Ki (paLpxC [10]): 0.0106 ± 0.0089 nM
tR (min) Fluorescence assay (paLpxC [10]): 57 min and 57.3 ± 18.4 min
koff (paLpxC [10]): 0.00032 ± 0.0001 s⁻¹
kon (paLpxC [10]): 43.8 ± 31.7 µM⁻¹ s⁻¹
reduction of the starting log CFU/mL of the bacterial culture [5]: greater than 3 logs
MIC (P. aeruginosa PAO1 [7]): 12.5 µM (≈ 6.52 µg/mL)
MIC [9]: 0.78 µM (≈ 0.407 µg/mL)

CC(C)(N)[C@H](NC(=O)c1ccc(C#CC#C[C@@H]2C[C@H]2CO)cc1)C(=O)NO [ACHN-975]
toxicity in clinical trials [11]: dose-limiting cardiovascular toxicity

C[C@@H](O)[C@H](NC(=O)c1ccc(C#Cc2ccc(CN3CCOCC3)cc2)cc1)C(=O)NO [CHIR-090]
tR (ecLpxC): 66 ± 30 min
MIC [1]: 0.62 µM (≈ 0.271 µg/mL)
MIC (μM) FabZ* ([2]; hyperactive FabZ strain (L85P)): 0.010 µM (≈ 0.00437 µg/mL)
PAE (h) 1x, Wild-type [3]: 0 h
PAE (h) 4x, Wild-type [3]: 0 h
PAE (h) 16x, Wild-type [3]: 0 h
PAE (h) 1x, FabZ* (FabZ* E. coli): 0.5 ± 0.1 h
PAE (h) 4x, FabZ* (FabZ* E. coli): 1.34 ± 0.04 h and 1.3 ± 0.3 h
PAE (h) 16x, FabZ* (FabZ* E. coli): 2.4 ± 0.2 h
PAE (h) (sub-MIC AZ) 16x(0.2) [4]: 2.8 ± 0.3 h
PAE (h) (sub-MIC AZ) 16x(0.4) [4]: 3.7 ± 0.2 h
residence time on aaLpxC [12]: > 24 h
reduction of the starting log CFU/mL of the bacterial culture [5]: greater than 3 logs

CC(O)(C(F)F)C(NC(=O)c1ccc(C#CC#Cc2ccc(N)cc2)cc1)C(=O)NO (centres unmarked) [LPC-058]
residence time on LpxC from E. coli (LpxC from E. coli): ~12 h

COc1ccc(-c2ccc(CNC3(C(=O)NO)CCS(=O)(=O)CC3)cc2)c(F)c1 [PT920, 4-(((2′-fluoro-4′-methoxy-[1,1′-biphenyl]-4-yl)methyl)amino)-N-hydroxytetrahydro-2H-thiopyran-4-carboxamide 1,1-dioxide]
Ki (paLpxC [10]): 0.0379 ± 0.024 nM
tR (min) Fluorescence assay (paLpxC [10]): 32.0 ± 4.8 min
koff (paLpxC [10]): 0.00053 ± 7e-05 s⁻¹
kon (paLpxC [10]): 16.6 ± 8.5 µM⁻¹ s⁻¹
tR (min) (Spin column assay) (paLpxC [13]; direct displacement): 79 ± 24 min and 79.0 ± 24.0 min
k (min^−1), spin-column assay (paLpxC [13]; first-order fit): 0.013 ± 0.004 min⁻¹
reduction of the starting log CFU/mL of the bacterial culture (P. aeruginosa PAO1 [6]): more than 3 logs
MIC (P. aeruginosa PAO1 [7]): 0.4 µM (≈ 0.169 µg/mL)
PAE (h) 4x (P. aeruginosa PAO1 [8]): 1.0 ± 0.1 h
PAE (h) 8x (P. aeruginosa PAO1 [8]): 1.3 ± 0.2 h
PAE (h) 16x (P. aeruginosa PAO1 [8]): 1.7 ± 0.2 h
MIC [9]: 0.03 µM (≈ 0.0127 µg/mL)
